In patent US8008505B2, “Indazole or 4,5,6,7-tetrahydro-indazole derivatives” (Hoffmann-La Roche Inc., priority 2008, dated 2011):

target: T1, FXR ligand binding domain (Homo sapiens, UniProt Q96RI1); assay: Radioligand binding assay (radioligand displacement, scintillation proximity); settings: GST-FXR LBD fusion protein on SPA beads, radioligand 2,N-dicyclohexyl-2-[2-(2,4 dimethoxy-phenyl)-benzoimidazol-1-yl]-acetamide, RT 30 minutes
T1 sequence (Q96RI1 1-486): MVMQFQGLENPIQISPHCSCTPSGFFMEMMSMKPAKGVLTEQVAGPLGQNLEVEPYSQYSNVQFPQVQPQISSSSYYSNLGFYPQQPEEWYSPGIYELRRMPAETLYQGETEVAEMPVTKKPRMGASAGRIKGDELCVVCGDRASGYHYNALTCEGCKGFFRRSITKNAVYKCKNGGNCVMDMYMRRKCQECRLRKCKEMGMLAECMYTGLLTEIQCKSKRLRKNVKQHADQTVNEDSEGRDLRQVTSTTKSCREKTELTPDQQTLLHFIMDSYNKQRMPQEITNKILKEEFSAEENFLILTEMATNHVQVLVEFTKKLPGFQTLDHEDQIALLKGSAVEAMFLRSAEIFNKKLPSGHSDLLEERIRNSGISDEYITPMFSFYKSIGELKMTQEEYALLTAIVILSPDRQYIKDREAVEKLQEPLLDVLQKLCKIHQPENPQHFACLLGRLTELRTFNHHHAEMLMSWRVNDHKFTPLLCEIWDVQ
Description: The following tests were carried out in order to determine the activity of the compounds of formula I. Background information on the binding assay can be found in: Nichols J S et al. “Development of a scintillation proximity assay for peroxisome proliferator-activated receptor gamma ligand binding domain”, (1998) Anal. Biochem. 257: 112-119.
Bacterial and mammalian expression vectors were constructed to produce glutathione-s-transferase (GST) and Gal4 DNA binding domain (GAL) proteins fused to the ligand binding domain (LBD) of human FXR (aa 193-473). To accomplish this, the portions of the sequences encoding the FXR LBD were amplified by polymerase chain reaction (PCR) from a full-length clone by PCR and then subcloned into the plasmid vectors. The final clone was verified by DNA sequence analysis.
The induction, expression, and subsequent purification of GST-LBD fusion protein was performed in E. coli strain BL21(pLysS) cells by standard methods (Current Protocols in Molecular Biology, Wiley Press, ed. Ausubel et al).
Radioligand Binding Assay
Binding of test substances to the FXR ligand binding domain was assessed in a radioligand displacement assay. The assay was performed in a buffer consisting of 50 mM Hepes, pH 7.4, 10 mM NaCl, 5 mM MgCl2. For each reaction well in a 96-well plate, 40 nM of GST-FXR LBD fusion protein was bound to 10 μg glutathione ytrium silicate SPA beads (Pharmacia Amersham) in a final volume of 50 μl by shaking. A radioligand (eg. 40 nM) of 2,N-dicyclohexyl-2-[2-(2,4 dimethoxy-phenyl)-benzoimidazol-1-yl]-acetamide) was added, and the reaction incubated at RT for 30 minutes in the presence of test compounds followed by scintillation proximity counting. All binding assays were performed in 96-well plates and the amount of bound ligand was measured on a Packard TopCount using OptiPlates (Packard). Dose response curves were performed within a range of concentration from 6×10^−9 M to 2.5×10^−5 M.

Row | IC50 [nM] | Structure (SMILES)
1 | 400 | Fc1cc2nn(-c3ccc(Cl)cc3)c(C(COc3ccc(-c4nnn[nH]4)cc3F)C3CCCCC3)c2cc1F (racemic) [Example 36, [rac]-2-(4-Chloro-phenyl)-3-{1-cyclohexyl-2-[2-fluoro-4-(2H-tetrazol-5-yl)-phenoxy]-ethyl}-5,6-difluoro-2H-indazole]
2 | 170 | O=C(O)C1(Oc2ccc(OC(c3c4cc(F)c(F)cc4nn3-c3ccc(Cl)cc3)C3CCCCC3)cc2)CC1 (racemic) [Example 56, [rac]-1-(4-{[2-(4-Chloro-phenyl)-5,6-difluoro-2H-indazol-3-yl]-cyclohexyl-methoxy}-phenoxy)-cyclopropanecarboxylic acid]
3 | 360 | Cc1cc(C(=O)O)cc(C)c1OCC(c1c2c(nn1-c1ccc(Cl)cc1)CCCC2)C1CCCCC1 (racemic) [Example 40, [rac]-4-{2-[2-(4-Chloro-phenyl)-4,5,6,7-tetrahydro-2H-indazol-3-yl]-2-cyclohexyl-ethoxy}-3,5-dimethyl-benzoic acid]
4 | 29 | Cc1cc(C(=O)O)cc(C)c1OCC(c1c2cc(F)c(F)cc2nn1-c1ccc(Cl)cc1)C1CCCCC1 (racemic) [Example 43, [rac]-4-{2-[2-[4-Chloro-phenyl]-5,6-difluoro-2H-indazol-3-yl]-2-cyclohexyl-ethoxy}-3,5-dimethyl-benzoic acid]
5 | 1700 | O=C(O)c1ccc(NC(=O)C(c2c3cc(F)c(F)cc3nn2-c2ccc(Cl)cc2)C2CCCCC2)c(F)c1 (racemic) [Example 32, [rac]-4-{2-[2-(4-Chloro-phenyl)-5,6-difluoro-2H-indazol-3-yl]-2-cyclohexyl-acetylamino}-3-fluoro-benzoic acid]
6 | 2 | Clc1ccc(-n2nc3ccccc3c2C(OCc2ccc(-c3nnn[nH]3)cc2)C2CCCCC2)cc1 (racemic) [Example 47, [rac]-2-(4-Chloro-phenyl)-3-{cyclohexyl-[4-(2H-tetrazol-5-yl)-benzyloxy]-methyl}-2H-indazole]
7 | 360 | O=C(O)c1ccc(COC(c2c3ccccc3nn2-c2ccc(Cl)cc2)C2CCCCC2)cc1 (racemic) [Example 18]
8 | 1060 | O=C(NC1CCCC1)C(c1c2c(nn1-c1ccc(Cl)cc1)CCCC2)C1CCCCC1 (stereo not shown) [Example 8, 2-[2-(4-Chloro-phenyl)-4,5,6,7-tetrahydro-2H-indazol-3-yl]-2-cyclohexyl-N-cyclopentyl-acetamide]
9 | 680 | O=C(NC1CCCCC1)C(c1c2cc(F)c(F)cc2nn1-c1ccc(Cl)cc1)C1CCCCC1 (racemic) [Example 24, [rac]-2-[2-(4-Chloro-phenyl)-5,6-difluoro-2H-indazol-3-yl]-2,N-dicyclohexyl-acetamide]
10 | 7540 | COC(=O)c1ccc(COC(c2c3ccccc3nn2-c2ccc(Cl)cc2)C2CCCCC2)cc1 (racemic) [Example 17]
11 | 3480 | N#Cc1ccc(OCC(c2c3c(nn2-c2ccc(Cl)cc2)CCCC3)C2CCCCC2)c(F)c1 (racemic) [Example 37, [rac]-4-{2-[2-(4-Chloro-phenyl)-4,5,6,7-tetrahydro-2H-indazol-3-yl]-2-cyclohexyl-ethoxy}-3-fluoro-benzonitrile]
12 | 223 | O=C(Nc1ccc(OC2(C(=O)O)CC2)cc1F)C(c1c2c(nn1-c1ccc(Cl)cc1)CCCC2)C1CCCCC1 (racemic) [Example 16, [rac]-1-(4-{2-[2-(4-Chloro-phenyl)-4,5,6,7-tetrahydro-2H-indazol-3-yl]-2-cyclohexyl-acetylamino}-3-fluoro-phenoxy)-cyclopropanecarboxylic acid]
13 | 2830 | O=C(Nc1ccc(F)cc1F)C(c1c2c(nn1-c1ccc(Cl)cc1)CCCC2)C1CCCCC1 (racemic) [Example 14, [rac]-2-[2-(4-Chloro-phenyl)-4,5,6,7-tetrahydro-2H-indazol-3-yl]-2-cyclohexyl-N-(2,4-difluoro-phenyl)-acetamide]
14 | 245 | O=C(O)c1ccc(COC(c2c3cc(F)c(F)cc3nn2-c2ccc(Cl)cc2)C2CCCCC2)cc1 (racemic) [Example 27, [rac]-4-{[2-(4-Chloro-phenyl)-5,6-difluoro-2H-indazol-3-yl]-cyclohexyl-methoxymethyl}-benzoic acid]
15 | 570 | CC(C)(Oc1ccc(NC(=O)C(c2c3cc(F)c(F)cc3nn2-c2ccc(Cl)cc2)C2CCCCC2)c(F)c1)C(=O)O (racemic) [Example 26, [rac]-2-(4-{2-[2-(4-Chloro-phenyl)-5,6-difluoro-2H-indazol-3-yl]-2-cyclohexyl-acetylamino}-3-fluoro-phenoxy)-2-methyl-propionic acid]
16 | 510 | O=C(O)c1ccc(COC(c2c3c(nn2-c2ccc(Cl)cc2)CCCC3)C2CCCCC2)cc1 (racemic) [Example 28, [rac]-4-{[2-(4-Chloro-phenyl)-4,5,6,7-tetrahydro-2H-indazol-3-yl]-cyclohexyl-methoxymethyl}-benzoic acid]
17 | 250 | O=C(O)c1ccc(OCC(c2c3c(nn2-c2ccc(Cl)cc2)CCCC3)C2CCCCC2)nc1 (racemic) [Example 64, [rac]-6-{2-[2-(4-Chloro-phenyl)-4,5,6,7-tetrahydro-2H-indazol-3-yl]-2-cyclohexyl-ethoxy}-nicotinic acid]
18 | 4900 | O=C(O)c1ccc(NC(=O)C(c2c3ccccc3nn2-c2ccc(Cl)cc2)C2CCCCC2)c(F)c1 (stereo not shown) [Example 13, 4-{2-[2-(4-Chloro-phenyl)-2H-indazol-3-yl]-2-cyclohexyl-acetylamino}-3-fluoro-benzoic acid]
19 | 3040 | O=C(N[C@H]1CC[C@H](O)CC1)C(c1c2c(nn1-c1ccc(Cl)cc1)CCCC2)C1CCCCC1 (mixture of isomers) [Example 59, [rac]-2-[2-(4-Chloro-phenyl)-4,5,6,7-tetrahydro-2H-indazol-3-yl]-2-cyclohexyl-(trans)-N-(4-hydroxy-cyclohexyl)-acetamide]
20 | 42 | O=C(O)C1(Oc2ccc(OCC(c3c4c(nn3-c3ccc(Cl)cc3)CCCC4)C3CCCCC3)cc2)CC1 (racemic) [Example 55, [rac]-1-(4-{2-[2-(4-Chloro-phenyl)-4,5,6,7-tetrahydro-2H-indazol-3-yl]-2-cyclohexyl-ethoxy}-phenoxy)-cyclopropanecarboxylic acid]
21 | 800 | O=C(O)c1ccc(NC(=O)C(c2c3c(nn2-c2ccc(Cl)cc2)CCCC3)C2CCCCC2)cc1 (stereo not shown) [Example 7, 4-{2-[2-(4-Chloro-phenyl)-4,5,6,7-tetrahydro-2H-indazol-3-yl]-2-cyclohexyl-acetylamino}-benzoic acid]
22 | 1300 | O=C(O)c1ccc(NC(=O)C(c2c3c(nn2-c2ccc(Cl)cc2)CCCC3)C2CCCCC2)c(F)c1 (stereo not shown) [Example 11, 4-{2-[2-(4-Chloro-phenyl)-4,5,6,7-tetrahydro-2H-indazol-3-yl]-2-cyclohexyl-acetylamino}-3-fluoro-benzoic acid]
23 | 7130 | N#Cc1ccc(COC(c2c3cc(F)c(F)cc3nn2-c2ccc(Cl)cc2)C2CCCCC2)c(F)c1 (racemic) [Example 41, [rac]-4-{[2-(4-Chloro-phenyl)-5,6-difluoro-2H-indazol-3-yl]-cyclohexyl-methoxymethyl}-3-fluoro-benzonitrile]
24 | 870 | N#Cc1ccc(OC(c2c3cc(F)c(F)cc3nn2-c2ccc(Cl)cc2)C2CCCCC2)c(F)c1 (racemic) [Example 35, [rac]-4-{[2-(4-Chloro-phenyl)-5,6-difluoro-2H-indazol-3-yl]-cyclohexyl-methoxy}-3-fluoro-benzonitrile]

Row | Structure (SMILES) | IC50 [nM]
25 | O=C(NC1CCCC1)C(O)(c1c2c(nn1-c1ccc(Cl)cc1)CCCC2)C1CCCCC1 (stereo not shown) [Example 9, 2-[2-(4-Chloro-phenyl)-4,5,6,7-tetrahydro-2H-indazol-3-yl]-2-cyclohexyl-N-cyclopentyl-2-hydroxy-acetamide] | 4860
